Legend:
Assay in all cases: Bliss excess, mean over the matrix (fraction); higher = more synergy
[1] = system: NCI-H1048 (Small Cell Lung Carcinoma)
Summary of the method: (§1)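 Cell lines grown in DMEM/F12 or RPMI with 10% FBS were plated in 1536-well plates and held 24 hours at 37°C, 5% CO2 before 72 hours of exposure to two-drug dose matrices, with DMSO typically at 0.2%. CellTiter-Glo 2.0 luminescence gave viability, which was converted to inhibition. Vehicle wells were set to 0 and blank wells to 1. Combination Emax is the second-highest inhibition in the matrix, and Bliss excess is the observed combination effect minus the expected EA + EB − EA·EB, where EA and EB are the single-agent effects.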

[2] = system: SNU-1 (Gastric Carcinoma)
Summary of the method: as §1

[3] = system: ATN-1 (T-Lymphoblastic Leukemia)
Summary of the method: as §1

[4] = system: NCI-H2023 (Non-Small Cell Lung Carcinoma)
Summary of the method: as §1

[5] = system: MDA-MB-175-VII (Breast Carcinoma)
Summary of the method: as §1

[6] = system: IGROV-1 (Ovarian Carcinoma)
Summary of the method: as §1

NCI-H2452 (Mesothelioma) = system: NCI-H2452 (Mesothelioma)
Summary of the method: as §1

SK-N-DZ (Neuroblastoma) = system: SK-N-DZ (Neuroblastoma)
Summary of the method: as §1

[7] = system: Daudi (Burkitt's Lymphoma)
Summary of the method: as §1

[8] = system: NTERA-2-cl-D1 (Other Solid Carcinomas)
Summary of the method: as §1

GCIY (Gastric Carcinoma) = system: GCIY (Gastric Carcinoma)
Summary of the method: as §1

[9] = system: RPMI-8402 (T-Lymphoblastic Leukemia)
Summary of the method: as §1

[10] = system: HT-3 (Cervical Carcinoma)
Summary of the method: as §1

HT-144 (Melanoma) = system: HT-144 (Melanoma)
Summary of the method: as §1

[11] = system: JJN-3 (Plasma Cell Myeloma)
Summary of the method: as §1

[12] = system: TOV-21G (Ovarian Carcinoma)
Summary of the method: as §1

[13] = system: OCI-M1 (Acute Myeloid Leukemia)
Summary of the method: as §1

[14] = system: BC-1 (B-Cell Non-Hodgkin's Lymphoma)
Summary of the method: as §1

A375 (Melanoma) = system: A375 (Melanoma)
Summary of the method: as §1

Row | Compound | Bliss excess [1] | Bliss excess [2] | Bliss excess [3] | Bliss excess [4] | Bliss excess [5] | Bliss excess [6] | Bliss excess (NCI-H2452 (Mesothelioma)) | Bliss excess (SK-N-DZ (Neuroblastoma)) | Bliss excess [7] | Bliss excess [8] | Bliss excess (GCIY (Gastric Carcinoma)) | Bliss excess [9] | Bliss excess [10] | Bliss excess (HT-144 (Melanoma)) | Bliss excess [11] | Bliss excess [12] | Bliss excess [13] | Bliss excess [14] | Bliss excess (A375 (Melanoma))
1 | CN(CCO)CC[C@H](CSc1ccccc1)Nc1ccc(S(=O)(=O)NC(=O)c2ccc(N3CCC([C@@H](O)c4ccccc4-c4ccc(Cl)cc4)CC3)cc2)cc1S(=O)(=O)C(F)(F)F [AZD4320] + Cc1cc2ncnn2cc1Nc1ncc2c(n1)n(C1CCOCC1)c(=O)n2C [AZD7648] (first compound max 1 µM, 7x7, partner max 10 µM) | 0.0256 | 0.0237 | 0.0479 | -0.0585 | -0.0145 | 0.0266 | -0.011 | -0.0362 | -0.0115 | 0.0408 | -0.0452 | 0.0194 | -0.0403 | -0.0122 | 0.0461 | -0.0221 | 0.0138 | 0.0246 | -0.0312
2 | Cc1cc2ncnn2cc1Nc1ncc2c(n1)n(C1CCOCC1)c(=O)n2C [AZD7648] + O=C(c1cc(Cc2n[nH]c(=O)c3ccccc23)ccc1F)N1CCN(C(=O)C2CC2)CC1 [Olaparib] (first compound max 10 µM, 7x7, partner max 10 µM) | -0.0593 | 0.0384 | -0.031 | -0.0892 | -0.0525 | -0.0782 | -0.0664 | 0.0102 | -0.0336 | 0.0101 | -0.0554 | -0.0158 | -0.0518 | -0.0519 | -0.008 | -0.0363 | -0.0248 | 0.0015 | -0.0339
3 | CN(CCO)CC[C@H](CSc1ccccc1)Nc1ccc(S(=O)(=O)NC(=O)c2ccc(N3CCC([C@@H](O)c4ccccc4-c4ccc(Cl)cc4)CC3)cc2)cc1S(=O)(=O)C(F)(F)F [AZD4320] + C[C@@H](Nc1cc(F)cc(F)c1)c1cc(C(=O)N(C)C)cc2c(=O)cc(N3CCOCC3)oc12 [AZD8186] (first compound max 1 µM, 7x7, partner max 3 µM) | 0.0388 | -0.0024 | -0.0214 | -0.034 | 0.0271 | 0.042 | -0.0369 | -0.0302 | 0.0555 | 0.0543 | 0.0022 | 0.0715 | 0.0383 | 0.0944 | 0.0409 | -0.0083 | 0.0278 | 0.0677 | 0
4 | C[C@@H](c1ccc2nccn2c1)n1nnc2ncc(-c3cnn(C)c3)nc21 [Savolitinib] + CN(CC[C@H](CSC1=CC=CC=C1)NC2=C(C=C(C=C2)S(=O)(=O)NC(=O)C3=CC=C(C=C3)N4CCC(CC4)[C@H](C5=CC=CC=C5C6=CC=C(C=C6)Cl)O)S(=O)(=O)C(F)(F)F)CCO [AZD4320] (first compound max 1 µM, 7x7, partner max 1 µM) | 0.0144 | -0.0597 | 0.0235 |  |  | -0.0735 |  | -0.0035 | -0.0219 |  |  |  | -0.0238 | -0.0287 | -0.0374 | -0.0216 | -0.0212 |  | -0.0463
5 | CN(CCO)CC[C@H](CSc1ccccc1)Nc1ccc(S(=O)(=O)NC(=O)c2ccc(N3CCC([C@@H](O)c4ccccc4-c4ccc(Cl)cc4)CC3)cc2)cc1S(=O)(=O)C(F)(F)F [AZD4320] + CCN(CCO)CCCOc1ccc2c(Nc3cc(CC(=O)Nc4cccc(F)c4)[nH]n3)ncnc2c1 [AZD2811] (first compound max 1 µM, 7x7, partner max 1 µM) | 0.139 | 0.0461 | 0.0082 | -0.0636 | 0.0289 | 0.0206 | -0.0111 | 0.0087 | 0.0078 | 0.159 | -0.0067 | 0.0501 |  | 0.0304 | 0.151 | -0.0177 | 0.0074 | 0.091 | 0.0107
6 | CN(CCO)CC[C@H](CSc1ccccc1)Nc1ccc(S(=O)(=O)NC(=O)c2ccc(N3CCC([C@@H](O)c4ccccc4-c4ccc(Cl)cc4)CC3)cc2)cc1S(=O)(=O)C(F)(F)F [AZD4320] + C[C@@H]1COCCN1C2=NC(=NC(=C2)C3(CC3)[S@](=N)(=O)C)C4=C5C=CNC5=NC=C4 [AZD6738] (first compound max 1 µM, 7x7, partner max 10 µM) | 0.0634 | -0.0343 | 0.0273 | -0.0255 | -0.0429 | -0.0353 | -0.0246 | -0.0559 | -0.0403 | -0.0301 | 0.0264 | 0.031 | -0.0285 | -0.0385 | 0.0041 | -0.0224 | 0.0051 | -0.0014 | -0.0221

Reference: the supplement of paper PMC11061612
